According to ChEMBL document CHEMBL3638392, “6-1H-imidazo-quinazoline and quinolines derivatives, new MAO inhibitors and imidazoline receptor ligands” (2014):

Target: T1, Amine oxidase [flavin-containing] A (Homo sapiens, UniProt P21397)
T1 sequence (P21397 whole entry): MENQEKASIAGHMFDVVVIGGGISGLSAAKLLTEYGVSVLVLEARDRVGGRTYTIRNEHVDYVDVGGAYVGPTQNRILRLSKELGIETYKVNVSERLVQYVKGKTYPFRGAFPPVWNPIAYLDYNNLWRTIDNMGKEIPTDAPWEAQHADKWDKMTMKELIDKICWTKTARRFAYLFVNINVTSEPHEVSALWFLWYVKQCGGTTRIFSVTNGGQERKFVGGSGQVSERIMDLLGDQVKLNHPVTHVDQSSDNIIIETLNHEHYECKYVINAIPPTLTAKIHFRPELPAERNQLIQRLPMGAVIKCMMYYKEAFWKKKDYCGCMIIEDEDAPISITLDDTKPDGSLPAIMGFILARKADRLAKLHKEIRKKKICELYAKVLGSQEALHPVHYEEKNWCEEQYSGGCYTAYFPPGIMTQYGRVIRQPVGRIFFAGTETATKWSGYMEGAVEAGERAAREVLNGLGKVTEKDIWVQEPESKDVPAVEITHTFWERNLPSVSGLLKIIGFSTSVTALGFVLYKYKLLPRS
Assay: Activity Assay: Inhibitory activity of compounds was evaluated by a homogeneous luminescent method, the MAO-Glo Assay (Promega), measuring the monoamine oxidase activity (MAOs) from recombinant source (microsomes from baculovirus infected insect cells, Sigma).

CS(=O)(=O)c1ccc(-c2ccc3cc(-n4ccnc4)ccc3n2)cc1 gave an IC50 of 450 nM.
